Laboratory results reported in patent publication US6914045B2, “Glycopeptide antibiotics” (Wyeth Holdings Corporation, priority 2001, dated 2005).
Values after ≈ are worked out from the molar mass of the structure shown.

Tests used:
Test in all cases: in vitro antibacterial evaluation, MIC by broth dilution
Type in all cases: cell-based
Staphylococcus sp. = details: broth dilution, 18 hours at 35° C.
Description: (§1) Methods for in vitro Antibacterial Evaluation (Table 1)
(§2) The minimum inhibitory concentration (MIC), the lowest concentration of the antibiotic which inhibits growth of the test organism, is determined by the broth dilution method using Muller-Hinton II […] (Baltimore Biological Laboratories) following the recommendations of the National Committee for Clinical Laboratory Standards [Methods for dilution antimicrobial susceptibility tests for bacteria that grow aerobically, approved standard M7-A2, National Committee for Clinical Laboratory Standards, Villanova, Pa.].
(§3) An inoculum level of 5×10^5 CFU/mL, and a range of antibiotic concentrations (64-0.06 μg/mL) is used. […] The test organisms include a spectrum of Gram-positive bacteria comprised of Staphylococcus sp., Streptococcus sp. and Enterococcus sp. These organisms include recent clinical isolates that are resistant to methicillin, penicillin and/or vancomycin.

Enterococcus sp. = details: broth dilution, 18 hours at 35° C.
Description: as §1, §2, §3

Streptococcus sp. = details: broth dilution, 18 hours at 35° C.
Description: as §1, §2, §3

Escherichia coli = details: 18 hours at 35° C.
Method in brief: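 Broth dilution in Muller-Hinton II medium per NCCLS standard M7-A2, with an inoculum of 5×10^5 CFU/mL and antibiotic tested over 64-0.06 μg/mL. MIC was taken as the lowest concentration inhibiting visible growth.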

MIC Staphylococcus aureus (ATCC 29213) (Staphylococcus sp.; strain ATCC 29213): >128 µg/mL
MIC Staphylococcus aureus (GC 1131) (Staphylococcus sp.; strain GC 1131): >128 µg/mL
MIC Staphylococcus aureus (GC 3051) (Staphylococcus sp.; strain GC 3051): >128 µg/mL
MIC Staphylococcus aureus (GC 3053) (Staphylococcus sp.; strain GC 3053): >128 µg/mL
MIC Staphylococcus aureus (GC 4541) (Staphylococcus sp.; strain GC 4541): >128 µg/mL
MIC Staphylococcus aureus (GC 4542) (Staphylococcus sp.; strain GC 4542): >128 µg/mL
MIC Staphylococcus aureus-SMITH (GC 4543) (Staphylococcus sp.; strain GC 4543): >128 µg/mL
MIC Staphylococcus aureus (GC 4544) (Staphylococcus sp.; strain GC 4544): >128 µg/mL
MIC Staphylococcus aureus (GC 4545) (Staphylococcus sp.; strain GC 4545): >128 µg/mL
MIC Coagulase Negative Staphylococcus (GC 4547) (Staphylococcus sp.; strain GC 4547): 128 µg/mL (≈ 130 µM)
MIC Coagulase Negative Staphylococcus (GC 4548) (Staphylococcus sp.; strain GC 4548): >128 µg/mL
MIC Coagulase Negative Staphylococcus (GC 4549) (Staphylococcus sp.; strain GC 4549): >128 µg/mL
MIC Coagulase Negative Staphylococcus (GC 4551) (Staphylococcus sp.; strain GC 4551): >128 µg/mL
MIC Enterococcus avium (GC 4558) (Enterococcus sp.; Enterococcus avium (GC 4558)): 128 µg/mL (≈ 130 µM)
MIC Enterococcus faecalis (ATCC 29212) (Enterococcus sp.; Enterococcus faecalis (ATCC 29212)): >128 µg/mL
MIC Enterococcus faecalis (GC 4552) (Enterococcus sp.; Enterococcus faecalis (GC 4552)): >128 µg/mL
MIC Enterococcus faecalis (GC 4553) (Enterococcus sp.; Enterococcus faecalis (GC 4553)): >128 µg/mL
MIC Enterococcus faecalis (GC 4554) (Enterococcus sp.; Enterococcus faecalis (GC 4554)): >128 µg/mL
MIC Enterococcus faecalis (GC 6189) (Enterococcus sp.; Enterococcus faecalis (GC 6189)): >128 µg/mL
MIC Enterococcus faecium (GC 2243) (Enterococcus sp.; Enterococcus faecium (GC 2243)): >128 µg/mL
MIC Enterococcus faecium (GC 4556) (Enterococcus sp.; Enterococcus faecium (GC 4556)): >128 µg/mL
MIC Enterococcus faecium (GC 4557) (Enterococcus sp.; Enterococcus faecium (GC 4557)): 128 µg/mL (≈ 130 µM)
MIC Enterococcus avium (GC 4558) (Enterococcus sp.): 128 µg/mL (≈ 130 µM)
MIC Enterococcus faecalis (ATCC 29212) (Enterococcus sp.): >128 µg/mL
MIC Enterococcus faecalis (GC 2242) (Enterococcus sp.): >128 µg/mL
MIC Enterococcus faecalis (GC 2691) (Enterococcus sp.): >128 µg/mL
MIC Enterococcus faecalis (GC 3059) (Enterococcus sp.): >128 µg/mL
MIC Enterococcus faecalis (GC 4552) (Enterococcus sp.): >128 µg/mL
MIC Enterococcus faecalis (GC 4553) (Enterococcus sp.): >128 µg/mL
MIC Enterococcus faecalis (GC 4554) (Enterococcus sp.): >128 µg/mL
MIC Enterococcus faecalis (GC 6189) (Enterococcus sp.): >128 µg/mL
MIC Enterococcus faecium (GC 2243) (Enterococcus sp.): >128 µg/mL
MIC Enterococcus faecium (GC 4556) (Enterococcus sp.): >128 µg/mL
MIC Enterococcus faecium (GC 4557) (Enterococcus sp.): 128 µg/mL (≈ 130 µM)
MIC Enterococcus faecalis (GC 2242) (Enterococcus sp.; strain GC 2242): >128 µg/mL
MIC Enterococcus faecalis (GC 2691) (Enterococcus sp.; strain GC 2691): >128 µg/mL
MIC Enterococcus faecalis (GC 3059) (Enterococcus sp.; strain GC 3059): >128 µg/mL
MIC Streptococcus agalactiae (GC 4564) (Streptococcus sp.): >128 µg/mL
MIC Streptococcus pneumoniae (ATCC 6301) (Streptococcus sp.): >128 µg/mL
MIC Streptococcus pneumoniae (GC 1894) (Streptococcus sp.): 128 µg/mL (≈ 130 µM)
MIC Streptococcus pneumoniae (GC 4565) (Streptococcus sp.): >128 µg/mL
MIC Streptococcus pyogenes (GC 4563) (Streptococcus sp.): >128 µg/mL
MIC Streptococcus pneumoniae (ATCC 6301) (Streptococcus sp.; strain ATCC 6301): >128 µg/mL
MIC Streptococcus pneumoniae (GC 1894) (Streptococcus sp.; strain GC 1894): 128 µg/mL (≈ 130 µM)
MIC Streptococcus pyogenes (GC 4563) (Streptococcus sp.; strain GC 4563): >128 µg/mL
MIC Streptococcus agalactiae (GC 4564) (Streptococcus sp.; strain GC 4564): >128 µg/mL
MIC Streptococcus pneumoniae (GC 4565) (Streptococcus sp.; strain GC 4565): >128 µg/mL
MIC Escherichia coli (ATCC 25922) (Escherichia coli): >128 µg/mL
MIC Escherichia coli (GC 4559) (Escherichia coli): >128 µg/mL
MIC Escherichia coli (GC 4560) (Escherichia coli): >128 µg/mL
Structure (SMILES): CC(C1CCCCC1)C1NC(=O)CNC(=O)C(CO)NC(=O)C(C(O)C2CNC(=N)N2C2OC(CO)C(O)C(O)C2O)NC(=O)C(C(O)C2CNC(=N)N2)NC(=O)C(C[C@H]2CC[C@H](O)CC2)NC1=O (stereo partly drawn) [Example 54a, Cyclo[3-(anti-4-hydroxycyclohexyl)alanyl-3-(2-iminoimidazolidin-4-yl)seoyl-3-(3-hexopyranosyl-2-iminoimidazolidin-4-yl)serylserylglycyl-3-cyclohexyl-2-aminobutanoyl]]
MIC Staphylococcus haemolyticus (GC 4546) (Staphylococcus sp.; strain GC 4546): 128 µg/mL (≈ 130 µM)
